{
  "source": "patent US11458139B2",
  "about": "“Use of BRAF inhibitors for treating cutaneous reactions caused by treatment with a MEK inhibitor” (MEMORIAL SLOAN KETTERING CANCER CENTER, priority 2017, dated 2022)",
  "system": "MAPK (ERK)",
  "experiment": "ERK phosphorylation (Phospho-ERK/total ERK) in normal human keratinocytes HEKa, Western blot",
  "assay_type": "cell-based",
  "details": "2 hours treatment; for effect on ERK activation: concentration not given (0.3 μM and 1 μM tested); for ERK activation (increase in the relative amount of Phosphorylated ERK): 0.3 μM (FIGS. 1A and 1C)",
  "protocol": "Normal human keratinocytes HEKa (purchased from Gibco Rhenium) were seeded in 10 cm dishes (300,000 cells/dish) and incubated overnight at 37° C., 5% CO2. The medium was then replaced with a starvation medium for 2 hours and the cells were subsequently treated for 2 additional hours with the test compounds (i.e BRAF inhibitors). […]\nPost incubation, the cells were lysed with RIPA buffer and the protein extracts were analyzed by Western blot to detect Phospho-ERK and total ERK using suitable antibodies. Untreated cells and 0.1% DMSO treated cells were used as negative control and Human Keratinocyte Growth Supplement (HKGS) (Gibco) was used as a positive control.\nWestern Blot: 7.5 μg of total extract was loaded on 10% or 12% acrylamide gel. Following transfer, the membranes were blocked with TBST/5% skimmed milk and then incubated with Mouse anti Phospho-ERK (1:1000 in TBST 5% BSA, ON at 4° C.) and goat anti Mouse HRP (1:10,000 in TBST 5% BSA, 1-hour RT). The membranes were exposed using SuperSignal West Pico Chemiluminescent Substrate.\nHRP was subsequently inactivated by incubating the membranes for 1 hour with 0.5% sodium azide. Following washes and ECL exposure in order to ensure absence of signal, the membranes were re-blocked for 15 min with TBST/5% skimmed milk and then incubated with Rabbit anti total ERK2 (1:500 in TBST 5% BSA, ON at 4° C.), goat anti Rabbit HRP (1:5,000 in TBST 5% BSA, 1-hour RT) and finally exposed using the SuperSignal West Pico Chemiluminescent Substrate. The films were scanned and the signal was quantified using ImageJ software. The results were calculated as Phospho-ERK/total ERK.\nIn this experiment, the effect of the BRAF inhibitor compounds disclosed herein on MAPK (ERK) phosphorylation in human keratinocytes (HEKa) was investigated. Phosphorylation of ERK served as an indicator for ERK activation.\nIn order to determine the effect of various BRAF inhibitors on ERK activation in relevant keratinocytes cells, the level of ERK phosphorylation was measured in normal human keratinocytes in response to treatment with the BRAF inhibitors.",
  "data": [
    {"smiles": "C#Cc1cccc(Nc2nccc3c(-c4ccc5nc(NC)ncc5c4)c(C)ccc23)c1", "note": "[LUT192]", "values": [
      {"measurement": "effect on ERK activation", "value": "moderate effect on ERK activation"}
    ]},
    {"smiles": "CNc1cc(-c2cccnc2Nc2c(C)ccc3c(Nc4ccc(I)cc4F)nccc23)ncn1", "note": "[LUT156]", "values": [
      {"measurement": "ERK activation (increase in the relative amount of Phosphorylated ERK)", "value": "significant ERK activation"}
    ]},
    {"smiles": "CNc1ncc2cc(-c3c(C)ccc4c(Nc5ccc(Cl)c(C(F)(F)F)c5)nccc34)ccc2n1", "note": "[LUT197]", "values": [
      {"measurement": "ERK activation (increase in the relative amount of Phosphorylated ERK)", "value": "significant ERK activation"}
    ]},
    {"smiles": "CNc1ncc2cc(-c3c(C)ccc4c(Nc5ccc(F)c(Cl)c5)nccc34)ccc2n1", "note": "[LUT195]", "values": [
      {"measurement": "effect on ERK activation", "value": "moderate effect on ERK activation"}
    ]},
    {"smiles": "CNc1ncc2ccc(-c3c(C)ccc4c(Nc5cc(O)cc(O)c5)nccc34)cc2n1", "note": "[LUT001]", "values": [
      {"measurement": "effect on ERK activation", "value": "moderate effect on ERK activation"}
    ]}
  ]
}
